Measured values taken from patent publication US7892789B2, “Method of increasing cell permeability to trehalose by recombinantly producing a trehalose transporter” (priority 2007, dated 2011).

Tests used:
Format in all cases: cell-based
Conditions in all cases: 105 mM of trehalose, 3 h
DmTRET1 = target: T1, DmTRET1 (Drosophila melanogaster, UniProt A1Z8N1); experiment: Trehalose uptake in Xenopus oocytes expressing DmTRET1
T1 construct: ORF of either Tret1, DmTret1, AmTret1, AgTret1 or BmTret1 cDNA was amplified with PCR; expressed in transfected cells; host or cells: Xenopus laevis oocytes injected with cRNA
T1 sequence (A1Z8N1 352-857): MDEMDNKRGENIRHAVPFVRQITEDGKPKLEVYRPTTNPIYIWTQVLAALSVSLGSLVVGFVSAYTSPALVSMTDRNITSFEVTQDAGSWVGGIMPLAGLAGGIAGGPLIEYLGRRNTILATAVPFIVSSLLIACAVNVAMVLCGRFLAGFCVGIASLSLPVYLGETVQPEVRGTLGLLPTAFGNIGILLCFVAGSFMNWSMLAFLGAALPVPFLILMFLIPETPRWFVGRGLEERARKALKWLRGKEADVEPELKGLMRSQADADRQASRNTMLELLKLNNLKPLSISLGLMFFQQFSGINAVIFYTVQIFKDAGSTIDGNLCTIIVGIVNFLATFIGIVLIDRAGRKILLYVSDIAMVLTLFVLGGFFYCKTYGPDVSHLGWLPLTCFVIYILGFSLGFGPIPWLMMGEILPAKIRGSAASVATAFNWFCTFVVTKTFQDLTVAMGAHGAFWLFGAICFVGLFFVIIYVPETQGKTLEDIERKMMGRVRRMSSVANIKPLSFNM
Description: (§1) The capped RNA (cRNA) expression vector pTRET1-XbG-ev1 series was constructed as follows: ORF of either Tret1, DmTret1, AmTret1, AgTret1 or BmTret1 cDNA was amplified with PCR using specific primers containing Bgl II site at the 5′-end on each primer, respectively. The PCR products were digested with the restriction enzymes, and cloned into the site of Bgl II in pXbG-ev1 (Preston, G. M., et al. (1992) Science 256, 385-387). ORF of hGLUT1 cDNA was obtained by digestion of pSPMM1 with BamH I, and then subcloned into the site of Bgl II in pXbG-2. Template DNAs for cRNA synthesis were amplified from the corresponding cRNA expression vectors with a high fidelity DNA polymerase, KOD—Plus—, (TOYOBO). The cRNAs were synthesized with mMESSAGE mMACHINE T7 Kit (Ambion), and then purified with RNeasy MiniElute Cleanup kit (Qiagen).
(§2) All uptake assays for zero-trans trehalose and/or other sugars were performed using Xenopus oocytes expressing TRET1 at 15° C. in MBS containing appropriate concentrations of sugars. Sugar concentrations were determined using HPLC (Watanabe, M., et al. (2002) J Exp Biol 205, 2799-2802). All assays were carried out in triplicate. […] (data not shown).
(§3) Likewise, whether these Tret1-orthologs have trehalose transport activity was examined using the Xenopus oocyte expression system incubated in 105 mM of trehalose for 3 h.

AgTRET1 = target: T2, AgTRET1 (Anopheles gambiae, UniProt Q7PIR5); experiment: Trehalose uptake in Xenopus oocytes expressing AgTRET1
T2 construct: ORF of either Tret1, DmTret1, AmTret1, AgTret1 or BmTret1 cDNA was amplified with PCR; expressed in transfected cells; host or cells: Xenopus laevis oocytes injected with cRNA
T2 sequence (Q7PIR5 290-793): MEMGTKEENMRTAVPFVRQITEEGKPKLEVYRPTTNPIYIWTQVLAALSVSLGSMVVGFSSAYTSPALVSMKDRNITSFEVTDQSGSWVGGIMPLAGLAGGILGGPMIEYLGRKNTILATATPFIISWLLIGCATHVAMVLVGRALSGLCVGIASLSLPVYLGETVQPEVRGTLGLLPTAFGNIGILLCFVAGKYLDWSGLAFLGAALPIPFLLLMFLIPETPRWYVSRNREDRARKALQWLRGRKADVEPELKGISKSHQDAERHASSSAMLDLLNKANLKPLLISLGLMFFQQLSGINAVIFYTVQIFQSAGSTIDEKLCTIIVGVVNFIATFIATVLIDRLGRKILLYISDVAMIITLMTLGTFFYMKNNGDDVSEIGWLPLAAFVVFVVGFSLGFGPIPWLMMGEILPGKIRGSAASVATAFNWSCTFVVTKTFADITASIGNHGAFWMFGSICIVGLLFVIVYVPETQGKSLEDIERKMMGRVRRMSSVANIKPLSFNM
Description: as §1, §2, §3

AmTRET1 = target: T3, AmTRET1 (Apis mellifera ligustica, UniProt A9ZSY2); experiment: Trehalose uptake in Xenopus oocytes expressing AmTRET1
T3 construct: ORF of either Tret1, DmTret1, AmTret1, AgTret1 or BmTret1 cDNA was amplified with PCR; expressed in transfected cells; host or cells: Xenopus laevis oocytes injected with cRNA
T3 sequence (A9ZSY2 1-502): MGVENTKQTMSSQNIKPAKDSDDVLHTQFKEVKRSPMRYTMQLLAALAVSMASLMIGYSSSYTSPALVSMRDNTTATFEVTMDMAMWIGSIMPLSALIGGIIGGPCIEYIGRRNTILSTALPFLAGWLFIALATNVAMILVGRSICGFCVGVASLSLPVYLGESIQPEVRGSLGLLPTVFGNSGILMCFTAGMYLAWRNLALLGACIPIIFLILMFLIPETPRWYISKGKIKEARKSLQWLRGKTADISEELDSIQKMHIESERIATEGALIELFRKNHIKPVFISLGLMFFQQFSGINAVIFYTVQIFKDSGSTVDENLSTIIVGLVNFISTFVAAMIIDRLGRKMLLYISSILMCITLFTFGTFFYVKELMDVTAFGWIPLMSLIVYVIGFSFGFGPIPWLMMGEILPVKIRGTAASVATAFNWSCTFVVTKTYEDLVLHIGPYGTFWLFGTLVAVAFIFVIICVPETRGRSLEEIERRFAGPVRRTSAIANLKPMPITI
Description: as §1, §2, §3

BmTRET1 = target: T4, BmTRET1 (Bombyx mori, UniProt A9ZSY3); experiment: Trehalose uptake in Xenopus oocytes expressing BmTRET1
T4 construct: ORF of either Tret1, DmTret1, AmTret1, AgTret1 or BmTret1 cDNA was amplified with PCR; expressed in transfected cells; host or cells: Xenopus laevis oocytes injected with cRNA
T4 sequence (A9ZSY3 1-505): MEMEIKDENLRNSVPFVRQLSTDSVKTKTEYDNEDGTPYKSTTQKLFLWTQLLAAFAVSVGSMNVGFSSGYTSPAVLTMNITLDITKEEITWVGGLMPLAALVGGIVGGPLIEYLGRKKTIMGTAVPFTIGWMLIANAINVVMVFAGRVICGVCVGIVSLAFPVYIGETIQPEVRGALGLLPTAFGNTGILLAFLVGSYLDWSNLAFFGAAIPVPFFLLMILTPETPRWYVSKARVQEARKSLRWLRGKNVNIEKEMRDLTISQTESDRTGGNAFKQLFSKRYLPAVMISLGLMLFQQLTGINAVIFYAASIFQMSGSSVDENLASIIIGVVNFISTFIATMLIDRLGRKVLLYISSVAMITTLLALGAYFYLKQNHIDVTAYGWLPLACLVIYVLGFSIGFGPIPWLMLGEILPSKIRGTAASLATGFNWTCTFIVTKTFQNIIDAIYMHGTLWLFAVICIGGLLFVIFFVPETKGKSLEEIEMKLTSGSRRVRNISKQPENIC
Description: as §1, §2, §3

Measured: trehalose transport activity

OC[C@H]1O[C@H](O[C@H]2O[C@H](CO)[C@@H](O)[C@H](O)[C@H]2O)[C@H](O)[C@@H](O)[C@@H]1O [trehalose]
showed trehalose transport activity: DmTRET1 | AgTRET1 | AmTRET1 | BmTRET1
